Data as given in publication PMC12526400, “Insight into Cytotoxic Potential of Erica spiculifolia Salisb (Balkan Heath)” (Plants, 2025).
In brackets after ≈: the same amount, converted by molar mass. Several values for one entry are separate records, joined by “and”; a condition that tells them apart may be missing. Identical values can stand only once. Entries after “also recorded” stand apart in the source; their conditions may differ. Like-named read-outs stand apart in the source and are kept apart here.

Legend:
[1] = system: HL-60 cells; test: MTT cytotoxicity, HL-60; format: cell-based, human
Description: (§1) To evaluate the anticancer potential of the studied E. spiculifolia extract, we employed a diverse panel of human cancer cell lines alongside a non-malignant control. The hematological models included LAMA-84, a chronic myeloid leukemia line harboring the Philadelphia chromosome [t(9;22)], and HL-60, an acute promyelocytic leukemia line characterized by the t(15;17) translocation. These suspension cultures allowed us to assess the effects on leukemic cells with distinct genetic drivers. In parallel, we investigated the antitumor activity of the plant extract against reproductive system-associated carcinomas, including breast carcinoma cells (MCF-7 and MDA-MB-231) and a cervical cancer cell line (CASKI). MCF-7 cells are hormone-responsive and widely used to model estrogen receptor-positive disease, whereas MDA-MB-231 cells are triple-negative, highly aggressive, and resistant to conventional anti-hormonal therapy. To further broaden the spectrum, we included CASKI, a cervical carcinoma line associated with HPV16 infection, thereby extending the analysis to virally driven epithelial cancer. In addition, normal murine fibroblast cells (CCL-1) were used as a non-malignant comparator, enabling an assessment of selectivity between normal and malignant cells. The presence and degree of tumor selectivity was assessed by calculating the correspondent selectivity indices (SI, selectivity index), defined as the ratio between the half-inhibitory concentrations of the extract in healthy and malignant cells (Table 2).
(§2) The antiproliferative activity of the extract, gallic, oleanolic, and protocatechuic acids was screened against human malignant cell lines of hematological (LAMA-84, HL-60) and epithelial (MDA-MB-231, MCF-7, CASKI) origin, as well as normal murine fibroblast cells (CCL-1). All cell lines were purchased from the German Collection of Microorganisms and Cell Cultures (DSMZ GmbH, Braunschweig, Germany). Cell cultures were cultivated in a growth medium RPMI 1640 supplemented with 10% fetal bovine serum (FBS), 5% L-glutamine, and incubated under standard conditions of 37 °C and 5% humidified CO2 atmosphere.
(§3) The cytotoxic potential of the E. spiculifolia extract was studied using a validated method for assessing cell viability known as the Mosmann MTT test. The assay is colorimetric and measures the activity of mitochondrial enzymes, reducing the yellow dye MTT (3-(4,5-dimethylthiazol-2-yl)-2,5-diphenyltetrazolium bromide) to violet formazan crystals. According to protocol, exponential-phased cells were harvested and seeded (100 μL/well) in 96-well plates at the appropriate density. Following a 24 h incubation, cells were treated with serial dilutions of the extract in the concentration range 1000–31.3 μg/mL. Following a 72 h exposure, filter sterilized MTT substrate solution (5 mg/mL in PBS) was added to each well of the culture plate. A further 4h incubation allowed the reduction of the yellow MTT reagent into purple formazan crystals in metabolically active viable cells, which were dissolved in an isopropyl alcohol solution containing 5% formic acid prior to absorbance measurement at 550 nm. Untreated cells (100% cell viability) were used as negative control. Cisplatin was used as positive control.
(§4) Collected absorbance values were blanked against MTT and isopropanol solution and normalized to the mean value of untreated control (100% cell viability). The obtained data were fitted to “concentration-effect” curves and analyzed by means of non-linear regression in the GraphPad Prism 8.0 software. Statistical analyses were performed using one-way analysis of variance (ANOVA) to assess differences among experimental groups. Where significant differences were detected, post hoc comparisons were conducted using Tukey’s test.

[2] = system: cancer versus normal cell models; parameters: method as in PMID 36297448, doi:10.13005/bpj/3133, PMID 37108571; conditions: depending on the cancer versus normal cell models applied; cited from earlier work
[3] = system: CCL-1 normal murine fibroblast cells; test: MTT cytotoxicity, normal fibroblasts CCL-1; format: cell-based
Description: as §1, §2
as §3, with “Following a 72 h exposure, filter sterilized MTT substrate solution (5 mg/mL in PBS) was added to each well of the culture plate.” left out, “Untreated cells (100% cell viability) were used as negative control. Cisplatin was used as positive control.” left out
Collected absorbance values were blanked against MTT and isopropanol solution and normalized to the mean value of untreated control (100% cell viability). The obtained data were fitted to “concentration-effect” curves and analyzed by means of non-linear regression in the GraphPad Prism 8.0 software. […] Where significant differences were detected, post hoc comparisons were conducted using Tukey’s test.

[4] = system: LAMA-84 cells; test: MTT cytotoxicity, LAMA-84; format: cell-based, human
Description: as §1, §2, §3, §4

[5] = system: CASKI cells; test: MTT cytotoxicity, CASKI; format: cell-based, human
Description: as §1, §2, §3, §4

[6] = system: MCF-7 cells; test: MTT cytotoxicity, MCF-7; format: cell-based, human
Description: as §1, §2, §3, §4

[7] = system: MDA-MB-231 cells; test: MTT cytotoxicity, MDA-MB-231; format: cell-based, human
Description: as §1, §2, §3, §4

[8] = system: hepatocellular carcinoma HuH7 cells; parameters: method as in PMID 20415421; conditions: cited from earlier work
[9] = system: triple-negative MDA-MB-231 breast cancer cells; parameters: method as in doi:10.3724/SP.J.1145.2010.00202; conditions: cited from earlier work
[10] = system: HCT116; parameters: method as in PMID 30928277; conditions: cited from earlier work
[11] = system: SW480; parameters: method as in PMID 30928277; conditions: cited from earlier work
[12] = Homo sapiens, HL-60, MTT, 72 h exposure, promyelocytic leukemia, read-out: IC50 HL-60 (converted)
[13] = Mus musculus, MTT, 72 h exposure, normal murine fibroblast cells, read-out: IC50 CCL-1 (converted)
[14] = Homo sapiens, LAMA-84, MTT, 72 h exposure, bcr-abl+ chronic myeloid leukemia, read-out: IC50 LAMA-84 (converted)
[15] = Homo sapiens, LAMA-84, MTT, 72 h exposure, molar equivalent in brackets, read-out: IC50 LAMA-84 (converted)
[16] = Homo sapiens, Ca-Ski, MTT, 72 h exposure, cervical cancer, read-out: IC50 CASKI (converted)
[17] = Homo sapiens, MCF7, MTT, 72 h exposure, hormone-responsive breast carcinoma, read-out: IC50 MCF-7 (converted)
[18] = Homo sapiens, MDA-MB-231, MTT, 72 h exposure, triple-negative breast carcinoma, read-out: IC50 MDA-MB-231 (converted)
[19] = 72 h, concentrations up to 500 μg/mL

In the case of `N.N.[Cl][Pt][Cl]` [cisplatin, reference compound], the IC50 ([1]; MTT, 72 h exposure, molar equivalent in brackets, read-out: IC50 HL-60 (converted)) is reported as 8.9 µM, the “IC50 HL-60” value ([1]; MTT, 72 h exposure, promyelocytic leukemia) is reported as 2.7 ± 0.4 µg/mL and the “SI HL-60” value ([1]; selectivity index = IC50 in CCL-1 / IC50 in HL-60) is reported as 2.1. The “SI values typically reported” value [2] was 1–40, the IC50 ([3]; MTT, 72 h exposure, molar equivalent in brackets, read-out: IC50 CCL-1 (converted)) was 18.7 µM and the “IC50 CCL-1” value ([3]; MTT, 72 h exposure, normal murine fibroblast cells) was 5.6 ± 0.7 µg/mL. For the same compound, the “IC50 LAMA-84” value ([4]; MTT, 72 h exposure, bcr-abl+ chronic myeloid leukemia) was 11.4 ± 0.99 µg/mL, the IC50 ([4]; MTT, 72 h exposure, molar equivalent in brackets, read-out: IC50 LAMA-84 (converted)) was 37.8 µM and the “SI LAMA-84” value ([4]; selectivity index = IC50 in CCL-1 / IC50 in LAMA-84) was <1. For the same compound, the “IC50 CASKI” value ([5]; MTT, 72 h exposure, cervical cancer) was 14.6 ± 1.9 µg/mL, the IC50 ([5]; MTT, 72 h exposure, molar equivalent in brackets, read-out: IC50 CASKI (converted)) was 48.6 µM and the “SI CASKI” value ([5]; selectivity index = IC50 in CCL-1 / IC50 in CASKI) was <1. For the same compound, the “IC50 MCF-7” value ([6]; MTT, 72 h exposure, hormone-responsive breast carcinoma) was 15.5 ± 1.7 µg/mL, the IC50 ([6]; MTT, 72 h exposure, molar equivalent in brackets, read-out: IC50 MCF-7 (converted)) was 51.6 µM and the “SI MCF-7” value ([6]; selectivity index = IC50 in CCL-1 / IC50 in MCF-7) was <1. The IC50 ([7]; MTT, 72 h exposure, molar equivalent in brackets, read-out: IC50 MDA-MB-231 (converted)) was 57.1 µM, the “IC50 MDA-MB-231” value ([7]; MTT, 72 h exposure, triple-negative breast carcinoma) was 17.2 ± 1.3 µg/mL and the “SI MDA-MB-231” value ([7]; selectivity index = IC50 in CCL-1 / IC50 in MDA-MB-231) was <1.

For `COc1cccc2c1C(=O)c1c(O)c3c(c(O)c1C2=O)C[C@@](O)(C(=O)CO)C[C@@H]3O[C@H]1C[C@H](N)[C@H](O)[C@H](C)O1` [doxorubicin], the “SI values typically reported” value [2] is given as 1–40.

With `O=C(O)c1cc(O)c(O)c(O)c1` [gallic acid] the IC50 [1, 12] was > 500 µg/mL, the IC50 [3, 13] was > 500 µg/mL and the IC50 [4, 14] was 6.2 µg/mL. The IC50 [4, 15] was 36.4 µM, the “cytotoxicity against CASKI (in words)” value ([5]; 72 h exposure) was “inactive” and the IC50 [5, 16] was > 500 µg/mL. For the same compound, the IC50 [6, 17] was > 500 µg/mL and the IC50 [7, 18] was > 500 µg/mL.

In the case of `CC1(C)CC[C@]2(C(=O)O)CC[C@]3(C)C(=CC[C@@H]4[C@@]5(C)CC[C@H](O)C(C)(C)[C@@H]5CC[C@]43C)[C@@H]2C1` [oleanolic acid], the IC50 [8] is given as 100 µM, the “IC50 MDA-MB-231 (previous studies)” value [9] is given as 38.8 µg/mL (≈ 85 µM) and the IC50 [1, 12] is given as > 500 µg/mL. For the same compound, the IC50 [3, 13] was > 500 µg/mL, the IC50 [4, 14] was 1.7 µg/mL and the IC50 [4, 15] was 3.7 µM. For the same compound, the “cytotoxicity against CASKI (in words)” value ([5]; 72 h exposure) was “inactive”, the IC50 [5, 16] was > 500 µg/mL and the “cytotoxicity against MCF-7 (in words)” value [6, 19] was “inactive; also recorded: did not exert cytotoxic effects”. The IC50 [6, 17] was > 500 µg/mL, the “cytotoxicity against MDA-MB-231 (in words)” value [7, 19] was “inactive; also recorded: did not exert cytotoxic effects” and the IC50 [7, 18] was > 500 µg/mL.

For `O=C(O)c1ccc(O)c(O)c1` [protocatechuic acid], the IC50 ([1]; Homo sapiens, HL-60, 72 h, read-out: IC50 HL-60) was > 500 µg/mL, the IC50 ([3]; Mus musculus, Fibroblast, 72 h, read-out: IC50 CCL-1) was > 500 µg/mL and the IC50 ([4]; Homo sapiens, LAMA-84, 72 h, read-out: IC50 LAMA-84) was > 500 µg/mL and > 3.24 mM. The IC50 ([5]; Homo sapiens, Ca-Ski, 72 h, read-out: IC50 CASKI) was > 500 µg/mL, the IC50 ([6]; Homo sapiens, MCF7, 72 h, read-out: IC50 MCF-7) was > 500 µg/mL and the IC50 ([7]; Homo sapiens, MDA-MB-231, 72 h, read-out: IC50 MDA-MB-231) was 311 µg/mL.

For `C[C@H]1[C@H](C)CC[C@]2(C(=O)O)CC[C@]3(C)C(=CC[C@@H]4[C@@]5(C)CC[C@H](O)C(C)(C)[C@@H]5CC[C@]43C)[C@H]12` [ursolic acid], the IC50 [8] is given as 75 µM, the IC50 [10] is given as 13 µM and the IC50 [11] is given as 10.2 µM.
